In PMC4895043, “Biological Activities of Aerial Parts Extracts of Euphorbia characias” (BioMed Research International, 2016):

Molecular target: T1, HIV-1 RT (HIV-1 M:B_HXB2R, UniProt P04585)
T1 construct: gene gag-pol; mature RT cut from Gag-Pol polyprotein
Assay: RNase H inhibition assay
Format: biochemical
Settings: RNase H activity; read-out: IC50 (μg/mL)^∗ / HIV-1 / RNase H
Description: RNase H inhibition assay on HIV-1 RT

RDS1759
IC50: 7.1 ± 0.5 µM
